Among the data in patent US8017773B2, “Cyclohexyl sulfonamide derivatives” (Hoffmann-La Roche Inc., priority 2006, dated 2011) are Ki values, retold here.

What is called Ki is the equilibrium dissociation constant of an inhibitor or competing ligand from its target.

This test deals with T1, histamine 3 receptor (H3R) (Homo sapiens, UniProt Q9Y5N1).
T1 construct: expressed in transfected cells; host or cells: CHO cells (HR3-CHO), membrane preparation
T1 sequence (Q9Y5N1 whole entry): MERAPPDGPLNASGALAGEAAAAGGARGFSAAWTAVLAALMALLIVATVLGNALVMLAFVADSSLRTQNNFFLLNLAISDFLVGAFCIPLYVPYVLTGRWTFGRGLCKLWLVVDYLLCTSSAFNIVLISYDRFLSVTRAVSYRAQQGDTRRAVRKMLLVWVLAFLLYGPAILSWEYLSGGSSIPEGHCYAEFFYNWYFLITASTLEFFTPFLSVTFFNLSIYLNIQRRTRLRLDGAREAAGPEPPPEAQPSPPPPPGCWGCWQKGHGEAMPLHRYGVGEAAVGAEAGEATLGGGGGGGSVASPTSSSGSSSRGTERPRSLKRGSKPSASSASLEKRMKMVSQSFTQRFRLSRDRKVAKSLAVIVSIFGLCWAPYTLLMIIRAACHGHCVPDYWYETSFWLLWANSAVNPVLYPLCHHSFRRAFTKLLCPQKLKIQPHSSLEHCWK
Put plainly: Binding assay with 3H-(R)α-methylhistamine, competition binding on membranes of the human HR3-CHO cell line. The conditions noted are these: 3H(R)α-Methylhistamine 1 nM, Ki calculated from IC50 by Cheng-Prusoff. How it is done: Binding Assay with ^3H-(R)α-methylhistamine
Saturation binding experiments were performed using HR3-CHO membranes prepared as described in Takahashi, K, Tokita, S., Kotani, H. (2003) J. Pharmacol. Exp. Therapeutics 307, 213-218.
An appropriate amount of membrane (60 to 80 μg protein/well) was incubated with increasing concentrations of ^3H(R)α-Methylhistamine di-hydrochloride (0.10 to 10 nM). Non specific binding was determined using a 200 fold excess of cold (R)α-Methylhistamine dihydrobromide (500 nM final concentration). The incubation was carried out at room temperature (in deep-well plates shaking for three hours). The final volume in each well was 250 μl. The incubation was followed by rapid filtration on GF/B filters (pre-soaked with 100 μl of 0.5% PEI in Tris 50 mM shaking at 200 rpm for two hours). The filtration was made using a cell-harvester and the filter plates were then washed five times with ice cold washing buffer containing 0.5 M NaCl. After harvesting, the plates were dried at 55° C. for 60 min, then we added scintillation fluid (Microscint 40, 40 microl in each well) and the amount of radioactivity on the filter was determined in Packard top-counter after shaking the plates for two hours at 200 rpm at room temperature.
Binding Buffer: 50 mM Tris-HCl pH 7.4 and 5 mM MgCl2×6H2O pH 7.4. Washing Buffer: 50 mM Tris-HCl pH 7.4 and 5 mM MgCl2×6H2O and 0.5 M NaCl pH 7.4.
Indirect measurement of affinity of H3R inverse agonists: twelve increasing concentrations (ranging from 10 μM to 0.3 nM) of the selected compounds were always tested in competition binding experiments using membrane of the human HR3-CHO cell line. An appropriate amount of protein, e.g. approximately 500 cpm binding of RAMH at Kd, were incubated for 1 hour at room temperature in 250 μl final volume in 96-well plates in presence of ^3H(R)α-Methylhistamine (1 nM final concentration=Kd). […]
All compounds were tested at a single concentration in duplicates. […] Ki's were calculated from IC50 based on Cheng-Prusoff equation (Cheng, Y, Prusoff, W H (1973) Biochem Pharmacol 22, 3099-3108).
Regarding `COc1ccc(S(=O)(=O)N[C@H]2CC[C@H](C(=O)N3CCN(C(C)C)CC3)CC2)c(OC)c1` [Example 15, N-{trans-4-[(4-isopropyl-piperazin-1-yl)carbonyl]-cyclohexyl}-2,4-dimethoxy-benzenesulfonamide], the inhibition constant Ki was 23.4 nM.
On to `CCCS(=O)(=O)N[C@H]1CC[C@H](C(=O)N2CCN(C(C)C)CC2)CC1` [Example 1, N-{trans-4-[(4-isopropylpiperazin-1-yl)carbonyl]cyclohexyl}propane-1-sulfonamide], for which the Ki was 54.8 nM.
Under `CC(C)N1CCN(C(=O)[C@H]2CC[C@H](N(C(C)C)S(=O)(=O)c3ccc(F)c(Cl)c3)CC2)CC1` [Example 64, 3-chloro-4-fluoro-N-isopropyl-N-[trans-4-(4-isopropyl-piperazine-1-carbonyl)-cyclohexyl]-benzenesulfonamide] stands 8.9 nM.
